{"source": "patent US20130102838A1", "about": "“Oocyte Spindle-Associated Factors Improve Somatic Cell Cloning” (WORCESTER POLYTECHNIC INSTITUTE, priority 2007, published 2013)", "key": {"Metaphase II oocytes": {"tested_on": "Metaphase II oocytes", "assay": "Induced enucleation of activated Metaphase II oocytes (2nd polar body extrusion)", "assay_type": "cell-based", "settings": "MII oocytes activated with 7% EtOH or 2 μM ionomycin; Taxol 5 μg/mL, cycloheximide 10 μg/mL, demecolcine 0.4 μg/mL; control 3.7%", "experimental": "Metaphase II oocytes are activated with 7% EtOH or 2 μM ionomycin, followed by treatment with Taxol (5 μg/mL), or cycloheximide (10 μg/mL) or demecolcine (0.4 μg/mL), resulting in the 2nd polar body extrusion.\nWith demecoleine-induced enucleation, activated oocytes are treated with the microttibuline destabilizing drug, demecolcine. The resulting cytoplasts are competent to support term developments. Often, cytoplasts fail to complete the second polar body extrusion. Induced enucleation can take place, just prior to activation or just after activation."}, "Apc11": {"tested_on": "Apc11", "assay": "Effect of demecolcine on Apc11 spatial localization in mouse oocytes", "assay_type": "cell-based", "settings": "0.4 μg/mL, SrCl2-activated oocytes, AII, TII, Interphase", "experimental": "(§1) In order to induce superovulation in donor mice, female CF-1 mice (Charles River Laboratories) of breeding age were injected with Pregnant Mare Serum Gonadotropin (PMSG, Calbiochem) and Human Chorionic Gonadotropin (hCG, Calbiochem). For both hormones, 5IU was administered per mouse via intraperitioneal injection. PMSG was injected 64 hours before collection and hCG was given 48 hours later. Oviducts were dissected from mice euthanized by CO2 asphyxiation and placed in FHM media (Chemicon) at 37° C. Oocytes were separated from surrounding cumulus cells by a brief exposure to bovine hyaluronidase (HA, Sigma, 150 units/ml, <10 minutes). Oocytes with poor morphology (lysed, fragmented, dark pigmentation) were discarded. Oocytes were washed three times in FHM media and randomly sorted into treatment groups. Some oocytes were immediately fixed (see below) at Metaphase of Meiosis II (MII). […]\n(§2) To localize Apc11, a polyclonal antibody raised in rabbits against N-terminal amino acids of human Apc11 (Santa Cruz) was used as a primary antibody. […] Imaging was accomplished on a Zeiss Axiovert 200M inverted fluorescence microscope coupled to a Roper CoolSnapFx camera through a 63× oil emersion objective and 10× eyepiece/camera lens. […]"}, "meiotic spindle": {"tested_on": "meiotic spindle", "assay": "Effect of demecolcine on meiotic spindle and chromatin in activated mouse oocytes", "assay_type": "cell-based", "settings": "0.4 μg/mL, SrCl2-activated oocytes", "experimental": "as §1, §2"}, "Cdc20": {"tested_on": "Cdc20", "assay": "Effect of demecolcine on Cdc20 localization in mouse oocytes", "assay_type": "cell-based", "settings": "0.4 μg/mL, SrCl2-activated oocytes, throughout development", "experimental": "(§3) In order to induce superovulation in donor mice, female CF-1 mice (Charles River Laboratories) of breeding age were injected with Pregnant Mare Serum Gonadotropin (PMSG, Calbiochem) and Human Chorionic Gonadotropin (hCG, Calbiochem). For both hormones, 5IU was administered per mouse via intraperitioneal injection. PMSG was injected 64 hours before collection and hCG was given 48 hours later. Oviducts were dissected from mice euthanized by CO2 asphyxiation and placed in FHM media (Chemicon) at 37° C. Oocytes were separated from surrounding cumulus cells by a brief exposure to bovine hyaluronidase (HA, Sigma, 150 units/ml, <10 minutes). Oocytes with poor morphology (lysed, fragmented, dark pigmentation) were discarded. Oocytes were washed three times in FHM media and randomly sorted into treatment groups. Some oocytes were immediately fixed (see below) at Metaphase of Meiosis II (MII).\n(§4) For SrCl2 activation, the denuded oocytes were washed 3 times in FHM, 3 to 4 times in KSOM (without Ca^+2, Chemicon) equilibrated to 37° C. in 5% CO2, and then incubated in KSOM containing 10 mM strontium chloride at 37° C. with 5% CO2. After 15 minutes, some oocytes, depending on experimental design, were transferred to KSOM containing both SrCl2 (10 mM) and demecolcine (0.4 μg/mL) and incubated at 37° C. with 5% CO2. […]"}, "Rec8": {"tested_on": "Rec8", "assay": "Effect of demecolcine on Rec8 localization in mouse oocytes", "assay_type": "cell-based", "settings": "0.4 μg/mL, SrCl2-activated oocytes", "experimental": "as §3, §4"}, "[1]": {"tested_on": "mouse oocytes arrested at MII", "settings": "standard ethanol activation protocol, data not shown"}}}
{"smiles": "CC(=O)O[C@H]1C(=O)[C@@]2(C)[C@H]([C@H](OC(=O)c3ccccc3)[C@]3(O)C[C@H](OC(=O)[C@H](O)[C@@H](NC(=O)c4ccccc4)c4ccccc4)C(C)=C1C3(C)C)[C@]1(OC(C)=O)CO[C@@H]1C[C@@H]2O", "note": "[Taxol]", "values": [{"measurement": "induced enucleation, 2nd polar body extrusion", "setting": "Metaphase II oocytes", "result": 3.6, "unit": "%"}]}
{"smiles": "C[C@@H]1C[C@@H]([C@H](O)CC2CC(=O)NC(=O)C2)C(=O)[C@@H](C)C1", "note": "[cycloheximide]", "values": [{"measurement": "induced enucleation, 2nd polar body extrusion", "setting": "Metaphase II oocytes", "result": 16.3, "unit": "%"}]}
{"smiles": "CN[C@H]1CCc2cc(OC)c(OC)c(OC)c2-c2ccc(OC)c(=O)cc21", "note": "[demecolcine]", "values": [{"measurement": "induced enucleation, 2nd polar body extrusion", "setting": "Metaphase II oocytes", "result": 54, "unit": "%"}, {"measurement": "Apc11 staining pattern", "setting": "Apc11", "result": "non-distinct ataxia across the entire oocyte with no evidence of colocalization in any stage of development"}, {"measurement": "extrusion of chromatin", "setting": "meiotic spindle; Interphase (FIG. 16)", "result": "completely extrudes its chromatin in the second polar body"}, {"measurement": "meiotic spindle integrity", "setting": "meiotic spindle; compared to control eggs", "result": "severely disrupted"}, {"measurement": "Cdc20 staining pattern", "setting": "Cdc20", "result": "low levels of muddled signal across the cytoplasm"}, {"measurement": "Rec8 localization during Anaphase", "setting": "Rec8; Anaphase II", "result": "aggregate in an area surrounding the chromatin, but not directly over it"}, {"measurement": "Rec8 localization during Telophase", "setting": "Rec8; Telophase II, continues into Interphase", "result": "direct colocalization (purple spots) with the chromatin"}]}
{"smiles": "CCO", "note": "[ethanol]", "values": [{"measurement": "eggs per experiment that failed to leave MII", "setting": "[1]", "result": "≤ 50", "unit": "%"}]}
